Measurements from PMC3128788 (Nuclear medicine and biology, 2011).
Marks after values point to notes of the source that are not given here. Values belong to the compound of their own block, whether it stands above or below them.

How the values were obtained:
[1] = test system: P-gp expressed in Madin-Darby canine kidney (MDCK)-MDR1 cells; conditions: efflux blocked with verapamil; cited from earlier work
[2] = type: in vivo, male Sprague Dawley rats; conditions: for Blood %ID/gram, 5 min CycA / Bone %ID/gram, 5 min CycA / Fat %ID/gram, 5 min CycA / Kidney %ID/gram, 5 min CycA / Liver %ID/gram, 5 min CycA / Lung %ID/gram, 5 min CycA / Muscle %ID/gram, 5 min CycA / Total brain %ID/gram, 5 min CycA / Blood %ID/gram, 30 min CycA / Bone %ID/gram, 30 min CycA / Fat %ID/gram, 30 min CycA / Kidney %ID/gram, 30 min CycA / Liver %ID/gram, 30 min CycA / Lung %ID/gram, 30 min CycA / Muscle %ID/gram, 30 min CycA / Total brain %ID/gram, 30 min CycA: CycA […] mg/kg i.v. 30 min before tracer; for Blood %ID/gram, 5 min CycA / Bone %ID/gram, 5 min CycA / Fat %ID/gram, 5 min CycA / Kidney %ID/gram, 5 min CycA / Liver %ID/gram, 5 min CycA / Lung %ID/gram, 5 min CycA / Muscle %ID/gram, 5 min CycA / Total brain %ID/gram, 5 min CycA / Blood %ID/gram, 5 min No Rx / Bone %ID/gram, 5 min No Rx / Fat %ID/gram, 5 min No Rx / Kidney %ID/gram, 5 min No Rx / Liver %ID/gram, 5 min No Rx / Lung %ID/gram, 5 min No Rx / Muscle %ID/gram, 5 min No Rx / Total brain %ID/gram, 5 min No Rx: 5 min post-injection; for Blood %ID/gram, 30 min CycA / Bone %ID/gram, 30 min CycA / Fat %ID/gram, 30 min CycA / Kidney %ID/gram, 30 min CycA / Liver %ID/gram, 30 min CycA / Lung %ID/gram, 30 min CycA / Muscle %ID/gram, 30 min CycA / Total brain %ID/gram, 30 min CycA / Blood %ID/gram, 30 min No Rx / Bone %ID/gram, 30 min No Rx / Fat %ID/gram, 30 min No Rx / Kidney %ID/gram, 30 min No Rx / Liver %ID/gram, 30 min No Rx / Lung %ID/gram, 30 min No Rx / Muscle %ID/gram, 30 min No Rx / Total brain %ID/gram, 30 min No Rx: 30 min post-injection; for Increase in brain uptake after CycA administration at 5 min: 5 min post injection; for Blood %ID/gram, 5 min No Rx / Bone %ID/gram, 5 min No Rx / Fat %ID/gram, 5 min No Rx / Kidney %ID/gram, 5 min No Rx / Liver %ID/gram, 5 min No Rx / Lung %ID/gram, 5 min No Rx / Muscle %ID/gram, 5 min No Rx / Blood %ID/gram, 30 min No Rx / Bone %ID/gram, 30 min No Rx / Fat %ID/gram, 30 min No Rx / Kidney %ID/gram, 30 min No Rx / Liver %ID/gram, 30 min No Rx / Lung %ID/gram, 30 min No Rx / Muscle %ID/gram, 30 min No Rx / Total brain %ID/gram, 30 min No Rx / Total brain %ID/gram, 5 min No Rx: control rats, i.v.; for Bone activity levels from 5 min to 30 min (metabolic defluorination): normal rats; for Blood CycA:No Rx / Bone CycA:No Rx / Fat CycA:No Rx / Kidney CycA:No Rx / Liver CycA:No Rx / Lung CycA:No Rx / Muscle CycA:No Rx / Total brain CycA:No Rx: ratio of tracer uptake in CycA versus control group 30 min post injection
[3] = CycA pretreated versus control rats

Compound: O=C(NC/C=C/CN1CCN(c2cccc(Cl)c2Cl)CC1)c1ccc(-c2ccccn2)cc1 [PG 01037]
Substrate for P-gp [1]: substrate for P-gp

Blood %ID/gram, 5 min CycA [2]: 0.156 ± 0.033 %ID/gram | Bone %ID/gram, 5 min CycA [2]: 0.232 ± 0.015 %ID/gram | Fat %ID/gram, 5 min CycA [2]: 0.062 ± 0.017 %ID/gram | Kidney %ID/gram, 5 min CycA [2]: 1.782 ± 0.242 %ID/gram | Liver %ID/gram, 5 min CycA [2]: 1.790 ± 0.286 %ID/gram | Lung %ID/gram, 5 min CycA [2]: 1.423 ± 0.262 %ID/gram | Muscle %ID/gram, 5 min CycA [2]: 0.158 ± 0.055 %ID/gram | Total brain %ID/gram, 5 min CycA [2]: 0.421 ± 0.115 %ID/gram | Blood %ID/gram, 30 min CycA [2]: 0.178 ± 0.018 %ID/gram | Bone %ID/gram, 30 min CycA [2]: 0.168 ± 0.016 %ID/gram | Fat %ID/gram, 30 min CycA [2]: 0.069 ± 0.011 %ID/gram | Kidney %ID/gram, 30 min CycA [2]: 0.898 ± 0.076 %ID/gram | Liver %ID/gram, 30 min CycA [2]: 1.870 ± 0.184 %ID/gram | Lung %ID/gram, 30 min CycA [2]: 0.563 ± 0.016 %ID/gram | Muscle %ID/gram, 30 min CycA [2]: 0.147 ± 0.006 %ID/gram | Total brain %ID/gram, 30 min CycA [2]: 0.271 ± 0.068 %ID/gram | Increase in brain uptake after CycA administration at 5 min [2, 3]: 6.3 fold | Increase in brain uptake after CycA administration at 30 min ([2]; CycA pretreated versus control rats, 30 min post injection): 2.7 fold | Blood %ID/gram, 5 min No Rx [2]: 0.133 ± 0.018 %ID/gram | Bone %ID/gram, 5 min No Rx [2]: 0.243 ± 0.041 %ID/gram | Fat %ID/gram, 5 min No Rx [2]: 0.084 ± 0.036 %ID/gram | Kidney %ID/gram, 5 min No Rx [2]: 1.582 ± 0.293 %ID/gram | Liver %ID/gram, 5 min No Rx [2]: 2.035 ± 0.578 %ID/gram | Lung %ID/gram, 5 min No Rx [2]: 1.182 ± 0.086 %ID/gram | Muscle %ID/gram, 5 min No Rx [2]: 0.107 ± 0.017 %ID/gram | Blood %ID/gram, 30 min No Rx [2]: 0.167 ± 0.018 %ID/gram | Bone %ID/gram, 30 min No Rx [2]: 0.164 ± 0.018 %ID/gram | Fat %ID/gram, 30 min No Rx [2]: 0.086 ± 0.013 %ID/gram | Kidney %ID/gram, 30 min No Rx [2]: 0.952 ± 0.100 %ID/gram | Liver %ID/gram, 30 min No Rx [2]: 2.169 ± 0.113 %ID/gram | Lung %ID/gram, 30 min No Rx [2]: 0.668 ± 0.057 %ID/gram | Muscle %ID/gram, 30 min No Rx [2]: 0.143 ± 0.011 %ID/gram | Total brain %ID/gram, 30 min No Rx [2]: 0.098 ± 0.012 %ID/gram | Bone activity levels from 5 min to 30 min (metabolic defluorination) [2]: No accumulation | Blood CycA:No Rx [2]: 1.06 | Bone CycA:No Rx [2]: 1.02 | Fat CycA:No Rx [2]: 0.81 | Kidney CycA:No Rx [2]: 0.94 | Liver CycA:No Rx [2]: 0.86 ^e | Lung CycA:No Rx [2]: 0.84 ^d | Muscle CycA:No Rx [2]: 1.03 | Total brain CycA:No Rx [2]: 2.77 ^f
Compound: COc1ccccc1N1CCN(CCCCNC(=O)c2ccc(CC[18F])cc2)CC1 [[^18F]7, 4-(2-[^18F]-fluoroethyl)-N-(4-(4-(2-methoxyphenyl)piperazin-1-yl)butyl)benzamide]

Blood %ID/gram, 5 min CycA [2]: 0.109 ± 0.009 %ID/gram | Bone %ID/gram, 5 min CycA [2]: 0.288 ± 0.008 %ID/gram | Fat %ID/gram, 5 min CycA [2]: 0.116 ± 0.004 %ID/gram | Kidney %ID/gram, 5 min CycA [2]: 2.235 ± 0.175 %ID/gram | Liver %ID/gram, 5 min CycA [2]: 1.770 ± 0.584 %ID/gram | Lung %ID/gram, 5 min CycA [2]: 1.893 ± 0.158 %ID/gram | Muscle %ID/gram, 5 min CycA [2]: 0.184 ± 0.014 %ID/gram | Total brain %ID/gram, 5 min CycA [2]: 0.895 ± 0.063 %ID/gram | Blood %ID/gram, 30 min CycA [2]: 0.062 ± 0.018 %ID/gram | Bone %ID/gram, 30 min CycA [2]: 0.599 ± 0.152 %ID/gram | Fat %ID/gram, 30 min CycA [2]: 0.115 ± 0.030 %ID/gram | Kidney %ID/gram, 30 min CycA [2]: 2.548 ± 0.490 %ID/gram | Liver %ID/gram, 30 min CycA [2]: 2.431 ± 0.365 %ID/gram | Lung %ID/gram, 30 min CycA [2]: 1.154 ± 0.102 %ID/gram | Muscle %ID/gram, 30 min CycA [2]: 0.154 ± 0.038 %ID/gram | Total brain %ID/gram, 30 min CycA [2]: 0.970 ± 0.077 %ID/gram | Increase in brain uptake after CycA administration at 5 min [2, 3]: 5.0 fold | Blood %ID/gram, 5 min No Rx [2]: 0.079 ± 0.006 %ID/gram | Bone %ID/gram, 5 min No Rx [2]: 0.490 ± 0.033 %ID/gram | Fat %ID/gram, 5 min No Rx [2]: 0.101 ± 0.046 %ID/gram | Kidney %ID/gram, 5 min No Rx [2]: 2.939 ± 0.544 %ID/gram | Liver %ID/gram, 5 min No Rx [2]: 2.124 ± 0.113 %ID/gram | Lung %ID/gram, 5 min No Rx [2]: 2.432 ± 0.211 %ID/gram | Muscle %ID/gram, 5 min No Rx [2]: 0.099 ± 0.007 %ID/gram | Total brain %ID/gram, 5 min No Rx [2]: 0.178 ± 0.030 %ID/gram | Blood %ID/gram, 30 min No Rx [2]: 0.046 ± 0.008 %ID/gram | Bone %ID/gram, 30 min No Rx [2]: 0.882 ± 0.153 %ID/gram | Fat %ID/gram, 30 min No Rx [2]: 0.095 ± 0.017 %ID/gram | Kidney %ID/gram, 30 min No Rx [2]: 2.710 ± 0.235 %ID/gram | Liver %ID/gram, 30 min No Rx [2]: 2.134 ± 0.313 %ID/gram | Lung %ID/gram, 30 min No Rx [2]: 1.553 ± 0.179 %ID/gram | Muscle %ID/gram, 30 min No Rx [2]: 0.111 ± 0.006 %ID/gram | Total brain %ID/gram, 30 min No Rx [2]: 0.180 ± 0.006 %ID/gram | Bone activity levels from 5 min to 30 min (metabolic defluorination) [2]: two-fold increase | Blood CycA:No Rx [2]: 1.35 | Bone CycA:No Rx [2]: 0.68 | Fat CycA:No Rx [2]: 1.20 | Kidney CycA:No Rx [2]: 0.94 | Liver CycA:No Rx [2]: 1.14 | Lung CycA:No Rx [2]: 0.74 | Muscle CycA:No Rx [2]: 1.38 | Total brain CycA:No Rx [2]: 5.38 ^g
Compound: CN(C)c1ccc(C(=O)NCCCCN2CCN(c3ccccc3OCC[18F])CC2)cc1 [[^18F]8, 4-(dimethylamino)-N-(4-(4-(2-(2-[^18F]fluoroethoxy)phenyl)piperazin-1-yl)butyl)benzamide]

Blood %ID/gram, 5 min CycA [2]: 0.098 ± 0.009 %ID/gram | Bone %ID/gram, 5 min CycA [2]: 0.162 ± 0.030 g %ID/gram | Fat %ID/gram, 5 min CycA [2]: 0.046 ± 0.028 %ID/gram | Kidney %ID/gram, 5 min CycA [2]: 1.913 ± 0.037 %ID/gram | Liver %ID/gram, 5 min CycA [2]: 1.478 ± 0.336 %ID/gram | Lung %ID/gram, 5 min CycA [2]: 3.356 ± 0.261 %ID/gram | Muscle %ID/gram, 5 min CycA [2]: 0.097 ± 0.0417 %ID/gram | Total brain %ID/gram, 5 min CycA [2]: 0.725 ± 0.022 %ID/gram | Blood %ID/gram, 30 min CycA [2]: 0.109 ± 0.019 %ID/gram | Bone %ID/gram, 30 min CycA [2]: 0.143 ± 0.016 %ID/gram | Fat %ID/gram, 30 min CycA [2]: 0.093 ± 0.017 %ID/gram | Kidney %ID/gram, 30 min CycA [2]: 1.397 ± 0.260 %ID/gram | Liver %ID/gram, 30 min CycA [2]: 1.039 ± 0.124 %ID/gram | Lung %ID/gram, 30 min CycA [2]: 1.063 ± 0.182 %ID/gram | Muscle %ID/gram, 30 min CycA [2]: 0.108 ± 0.014 %ID/gram | Total brain %ID/gram, 30 min CycA [2]: 0.504 ± 0.023 %ID/gram | Blood %ID/gram, 5 min No Rx [2]: 0.082 ± 0.027 %ID/gram | Bone %ID/gram, 5 min No Rx [2]: 0.253 ± 0.001 %ID/gram | Fat %ID/gram, 5 min No Rx [2]: 0.028 ± 0.003 %ID/gram | Kidney %ID/gram, 5 min No Rx [2]: 2.485 ± 0.608 %ID/gram | Liver %ID/gram, 5 min No Rx [2]: 1.430 ± 0.221 %ID/gram | Lung %ID/gram, 5 min No Rx [2]: 4.026 ± 1.177 %ID/gram | Muscle %ID/gram, 5 min No Rx [2]: 0.083 ± 0.009 %ID/gram | Total brain %ID/gram, 5 min No Rx [2]: 0.118 ± 0.001 %ID/gram | Blood %ID/gram, 30 min No Rx [2]: 0.104 ± 0.010 %ID/gram | Bone %ID/gram, 30 min No Rx [2]: 0.220 ± 0.0494 %ID/gram | Fat %ID/gram, 30 min No Rx [2]: 0.091 ± 0.0029 %ID/gram | Kidney %ID/gram, 30 min No Rx [2]: 1.363 ± 0.0359 %ID/gram | Liver %ID/gram, 30 min No Rx [2]: 1.162 ± 0.1400 %ID/gram | Lung %ID/gram, 30 min No Rx [2]: 1.313 ± 0.3574 %ID/gram | Muscle %ID/gram, 30 min No Rx [2]: 0.083 ± 0.0139 %ID/gram | Total brain %ID/gram, 30 min No Rx [2]: 0.095 ± 0.0208 %ID/gram | Bone activity levels from 5 min to 30 min (metabolic defluorination) [2]: No accumulation | Blood CycA:No Rx [2]: 1.05 | Bone CycA:No Rx [2]: 0.65 | Fat CycA:No Rx [2]: 1.02 | Kidney CycA:No Rx [2]: 1.03 | Liver CycA:No Rx [2]: 0.89 | Lung CycA:No Rx [2]: 0.81 | Muscle CycA:No Rx [2]: 1.24 | Total brain CycA:No Rx [2]: 5.33 ^h
Compound: O=C(NCCCCN1CCN(c2ccccc2OCC[18F])CC1)c1ccc(-c2ccsc2)cc1 [[^18F]9, N-(4-(4-(2-(2-[^18F]fluoroethoxy)phenyl)piperazin-1-yl)butyl)-4-(thiophen-3-yl)benzamide]
